We go through two compounds from US11826402B2, “Combination therapy involving antibodies against claudin 18.2 for treatment of metastatic pancreatic adenocarcinoma” (Astellas Pharma Inc., priority 2013, dated 2023).

Values after ≈ are worked out from the molar mass of the structure shown.

Data set [1] deals with DANG. In words: Inhibition of proliferation (XTT viability assay, 4 days). Format: cell-based, human. The protocol:
(§1) To analyze dose-response curves of each chemotherapeutic agent, a proliferation assay was performed.
(§2) Cells were seeded in 96 well plates and after 4-6 hours gemcitabine or oxaliplatin was added in following concentrations: 1000, 500, 250, 100 and 20 ng/ml. The proliferation assay was incubated for 4 days at 37° C. and 5% CO2. 50 μl XTT complete reagent (50 parts XTT+1 part coupl. reagent mixed) was added and incubated at 37° C. Measurement of absorbance (cells plus supernatant) was done with the Tecan Safire after 3 h and 4 h. Inhibition of proliferation was calculated compared to medium values set as 100%. EC50 values for gemcitabine and oxaliplatin were calculated in the GraphPad Prism program.
In general terms: Tetrazolium dyes change colour on reduction, which living cells bring about.

Data set [2] concerns MiaPaCa-2-LVT. The description is as above. In kind it is cell-based, human. The procedure: as §1, §2
Data set [3] concerns the target CLDN18.1 (Homo sapiens, UniProt P56856). In words: Binding to other claudin family members (background).
Data set [4] has as its system AsPC1. The experiment in a line: IMAB362-mediated ADCC assay. In kind it is cell-based, human. The note with it: at least 2 donors.
Data set [5] has as its system Patu8902. The experiment in a line: IMAB362-mediated CDC assay (healthy human serum pool). In kind it is cell-based. The protocol:
(§3) In addition, the LVT cell lines and the parental strains were tested in CDC.
(§4) CHO-K1 cells stably transfected with CLDN18.2 (p740) and luciferase were used as assay positive controls in each assay (FIG. 23A). […] This is most likely due to the fact that neoplastic cells over-express one or more membrane bound complement inhibitory proteins (e.g. CD46, CD55 and CD59) (Geis et al., Curr Cancer Drug Targets, 2010 10:922-931). However, if expression of these inhibitory proteins on tumor cells affect clinical outcome of an antibody therapy is still contradictory (Dzietczenia et al. Med. Oncol. 2010, 27:743-6; Weng and Levy at al., Blood 2001 98:1352-7). In addition to the endogenous cell lines, all the LVT cell lines were tested in CDC assays.

The subject of data set [6] is MiaPaCa2. The data set is described as above. In kind it is cell-based. The protocol: as §3, §4
Data set [7] has as its system MiaPaCa-2-LVT. The experiment in a line: IMAB362-mediated CDC after cultivation with chemotherapeutic agents.
Procedure: Dose response curves of 2 independent assays. MiaPaCa2-LVT were cultivated in medium, Gem (10 ng/ml) or GemOx (10 ng/ml Gem+100 ng/ml Ox) for 70 h.
CDC was performed as follows.
An additional positive control was generated at the end of the reaction by addition of 0.8% Triton X100 to a second medium control well causing total lysis. […] All samples were prepared (200 μl each) at the same time in a 96 well deepwell dilution plate. Samples were taken 3 times from each well by reverse pipetting to generate the triplicates in the assay plates.
To each well 10 μl PBS was added, except in the Triton-Lysis control wells. To each Triton-Lysis control well, 10 μl 0.8% Triton/PBS solution was added. Luciferin substrate solution was prepared (6114 μl Aqua bidest, 2496 μl HEPES (IM), 1998 μl 1×DPBS, 4992 μl D-Luciferin Stocksolution (12 mg/ml)). To each well 50 μl Luciferin substrate solution was added. […] Plates will be measured in a microplate reader. • Complement-dependent lysis was calculated using formula: Specific lysis (%)=100−[(RLUsample−RLUtriton)/(RLUHSCM−RLUtriton)×100]
Modifications for testing the pancreatic cancer cell lines: • Pancreatic cancer cells were transfected with luciferase RNA using optimized conditions.
Data set [8] deals with CFPAC1. In words: IMAB362-mediated ADCC assay. In kind it is cell-based, human. The note with it: at least 2 donors.
Data set [9] in a line: Phase I clinical study, single intravenous administration. Format: in vivo, human. The text has this: IMAB362 is in early clinical testing. A phase I clinical study has been conducted in human. […] In an ongoing phase IIa clinical study IMAB362 is given repetitively.
Setting [10] is: Homo sapiens, 96 h, 4 days exposure.

Sequence of CLDN18.1 (P56856 whole entry): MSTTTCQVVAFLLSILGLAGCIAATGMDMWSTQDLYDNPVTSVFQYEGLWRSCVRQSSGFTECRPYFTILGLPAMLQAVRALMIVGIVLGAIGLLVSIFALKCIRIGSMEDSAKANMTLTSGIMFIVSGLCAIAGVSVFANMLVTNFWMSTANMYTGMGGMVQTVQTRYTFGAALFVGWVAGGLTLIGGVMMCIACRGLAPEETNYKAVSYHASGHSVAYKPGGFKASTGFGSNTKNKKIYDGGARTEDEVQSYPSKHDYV

For `Nc1ccn([C@@H]2O[C@H](CO)[C@@H](O)C2(F)F)c(=O)n1` [gemcitabine, 4-amino-1-(2-deoxy-2,2-difluoro-β-D-erythro-pentofuranosyl)pyrimidin-2(1H)-one], the “sensitivity of cells to the agent” value is “very sensitive” in data set [1] and “less sensitive” in data set [2]. Moreover, the IC50 in data set [1] (setting [10]) was ~0.001 µg/mL (≈ 0.0038 µM); in [2] (setting [10]) it was 0.05 µg/mL (≈ 0.19 µM).
Turning to “IMAB362: chimeric IgG1 antibody directed against CLDN18.2, developed by Ganymed Pharmaceuticals AG”, in data set [3], the “binding to CLDN18.1 and other claudin family members” value is reported as “does not bind”. Further, the “ADCC EC50” value in data set [4] and in data set [8] was “n.m” each time. Besides, the “ADCC Max. lysis” value is listed as “n.m” in data set [4] and 0-1.5% in [8]. The “CDC EC50” value in [5] and in data set [6] was “n.m” each time. Besides, the “CDC Max. lysis” value in data set [5] and in [6] was “n.m” in each case. The “max lyses (CDC), Gem treated versus medium” value in data set [7] (MiaPaCa-2-LVT treated with Gem) is “increase”. In addition, the “EC50 for IMAB362 specific lyses (CDC)” value in [7] (MiaPaCa-2-LVT treated with Gem (10 ng/ml, 70 h)) turned out to be 4.677 µg/mL; in data set [7] (medium cultivated MiaPaCa-2-LVT), 7.665 µg/mL. Further, in [9] (one patient, within 4 weeks after treatment), the measured tumor markers entry is listed as “decreased significantly”. In addition, in [9] (single i.v. administration 33-1000 mg/m^2, observed 28 days), the tolerability in patients result was “very well tolerated”.

In general, IC50 refers to the concentration that inhibits the measured activity by half. A lower IC50 goes with higher potency.
